Reference: US8530665B2 (Eli Lilly and Company, priority 2010, dated 2013)

Tests used:
[1] = test system: FGF9 induced ERK phosphorylation in Human RT112 bladder carcinoma cells; test: FGF9 induced p-ERK with BSA in RT112 cells; conditions: RT-112, read-out: IC50 FGF9 induced p-ERK
Method: FGF9 Induced p-ERK with BSA
This yielded a 10 point dose-response curve ranging from 10-0.005 μM in 1% DMSO. The incubation is continued for 1 hour at 37° C. […] Cells are fixed by the addition of 30 μL of a 25% formaldehyde solution in phosphate buffered saline (PBS) (3.7% formaldehyde final concentration), and incubated 30 minutes at RT. Cells are washed 3× with PBS, followed by the addition of 100 μL of cold methanol and incubated for 30 minutes at −20° C. The methanol is removed and the cells are treated with PBS containing 0.1% TRITON® X-100(PBST), washed 3× with PBS, and incubated 15 minutes at RT.

[2] = test system: FGF receptor 1 (bFGF induced ERK phosphorylation in HUVEC); test: AlphaScreen SureFire Detection of ERK phosphorylation (Thr202/Tyr204) in HUVEC; conditions: Homo sapiens, read-out: IC50 b-FGF induced ERK phosphorylation (Thr202/Tyr204)
Method: AlphaScreen SureFire Detection of ERK Phosphorylation (Thr202/Tyr204) in Human Umbilical Vein Endothelial Cells (HUVEC)
The effect of compound on the inhibition of FGF receptor 1 is measured by monitoring the phosphorylation of ERK (pERK) in response to basic-Fibroblast growth factor (b-FGF) stimulation in Human Umbilical Endothelial cells (HUVEC). […] This is a homogeneous assay format utilizing the immuno-sandwich capture of the phosphorylated analyte followed by detection using antibody-coated ALPHASCREEN® beads (Perkin Elmer) to generate an amplified signal.
For the assay, cells are harvested by standard procedures and then counted. […] Plates are incubated overnight at 37° C., 5% CO2.
On the day of the assay, cells are serum starved in 100 μL EBM (endothelial cell basal) medium containing 1.5% FBS and 20 mg/mL BSA for 3 hours at 37° C., 5% CO2, then treated with 20 μM of 3× serially diluted compound in starvation medium for 1 hour at 37° C. This yielded a 10 point concentration-response curve ranging from 10-0.005 μM in 1% DMSO. After 1 hour compound treatment, cells are stimulated with 50 μL b-FGF (Sigma, F0291, final b-FGF concentration 50 ng/mL) at 37° C. for 15 minutes. In the wells containing cells and 50 μL stimulator b-FGF yields MAX signal, and cells with 10 μM positive control compound and 50 μL stimulator b-FGF as MIN. […]

C[C@@H](Oc1ccc2[nH]nc(/C=C/c3cnn(CCO)c3)c2c1)c1c(Cl)cncc1Cl [Preparation 10, (R)-(E)-2-(4-(2-(5-(1-(3,5-Dichloropyridin-4-yl)ethoxy)-1H-indazol-3-yl)vinyl)-1H-pyrazol-1-yl)ethanol]
IC50 [1]: 0.4 nM
IC50 [2]: 0.6 nM
